This is an account of results in publication PMC7053292 (Research in Pharmaceutical Sciences, 2020).

One assay can be described thus: DPPH assay. As to conditions: mean ± SD, n = 3; for Inhibitory activity at 0.5 mM (%): DPPH; for IC50: read-out: IC50 (DPPH free radical scavenging).
The target in assay [1] is T1, α-amylase from Aspergillus oryzae (Aspergillus oryzae, UniProt P0C1B3). In words: biochemical. As to conditions: for inhibition percentage lower than standard inhibitor acarbose on α-amylase: ratio of inhibition percentages, acarbose vs sample; for inhibition at 20 µM: read-out: Inhibition at 0.02 mM (%) α-Amylase.
The target in assay [2] is T2, α-glucosidase from Saccharomyces cerevisiae (Saccharomyces cerevisiae, UniProt P53341). In words: Kinetic study on α-glucosidase. It is filed as biochemical. As to conditions: for α-Glucosidase inhibition type: Lineweaver-Burk and Dixon plots; for Ki: α-Glucosidase Ki, from slope (Km/Vmax) vs [I], substrate 4-pNPG, free enzyme.
T2 sequence (P53341 whole entry): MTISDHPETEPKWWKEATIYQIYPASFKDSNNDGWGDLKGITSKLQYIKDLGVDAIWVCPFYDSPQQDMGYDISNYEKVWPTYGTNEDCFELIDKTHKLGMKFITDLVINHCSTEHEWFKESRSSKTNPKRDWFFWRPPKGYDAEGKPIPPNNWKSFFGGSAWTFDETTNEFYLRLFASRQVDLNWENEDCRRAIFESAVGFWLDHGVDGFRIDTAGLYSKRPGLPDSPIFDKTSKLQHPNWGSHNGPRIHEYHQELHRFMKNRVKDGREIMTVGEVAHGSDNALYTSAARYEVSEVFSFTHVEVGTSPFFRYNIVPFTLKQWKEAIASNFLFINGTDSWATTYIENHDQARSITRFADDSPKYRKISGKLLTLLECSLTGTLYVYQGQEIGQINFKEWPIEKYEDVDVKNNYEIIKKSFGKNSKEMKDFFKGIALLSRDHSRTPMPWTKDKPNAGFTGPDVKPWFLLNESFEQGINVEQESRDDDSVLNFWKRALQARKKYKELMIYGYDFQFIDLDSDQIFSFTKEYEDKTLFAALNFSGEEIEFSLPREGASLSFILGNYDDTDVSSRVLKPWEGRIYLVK
Assay [3] addresses T1, α-amylase from Aspergillus oryzae. In words: Kinetic study on α-amylase. It is filed as biochemical. As to conditions: for α-Amylase inhibition type: Lineweaver-Burk and Dixon plots; for Ki: substrate amylose.
The target of assay [4] is T2, α-glucosidase from Saccharomyces cerevisiae. In words: α-Glucosidase assay. It is filed as biochemical. As to conditions: for inhibition percentage lower than standard inhibitor acarbose on α-glucosidase: ratio of inhibition percentages, acarbose vs sample; for inhibition at 20 µM: read-out: Inhibition at 0.02 mM (%) α-Glucosidase.
Where [5] appears, read: IC50 values (mM) α-Amylase, mean ± SD, n = 3.
Setting [6] is: α-Amylase Ki, from slope (Km/Vmax) vs [I], free enzyme.
Where [7] appears, read: α-Amylase Ki´, from 1/Vmax vs [I], enzyme-substrate complex.

Where two headings read alike, the source gives them in different places. Marks after values point to notes of the source that are not given here.

As a reminder, the IC50 is the concentration needed to halve the response being measured. By inhibition is commonly meant the change of the read-out against control, counted positive when it falls. Usually Ki stands for a measure of affinity in units of concentration, obtained from inhibition or displacement. Low readings indicate a stronger hold on the target, high ones a looser hold on the target. For the compound `CC(=O)C1CCCN1Cc1ccccc1` (stereo not shown) [4a, N-(benzyl)-2-acetylpyrrolidine], in the assay “DPPH assay”, the “Inhibitory activity at 0.5 mM (%)” value was 41.62 ± 0.64^a % and the IC50 was determined as 1010 ± 10 µM. For the same compound, in assay [1], the half-inhibitory concentration (IC50) stood at 3.21 ± 0.65 mM, the “inhibition percentage lower than standard inhibitor acarbose on α-amylase” value is approximately 2.13 times and the inhibition at 20 µM stood at 28.9 ± 0.57%. In addition, in assay [1] (IC50 on α-amylase vs IC50 of 4a on α-glucosidase), the “less potential on α-amylase than 4a on α-glucosidase (IC50 ratio)” value is on record as approximately 6.2 times. For the same compound, the “less potential on α-amylase than 4b on α-amylase (IC50 ratio)” value in assay [1] (IC50 on α-amylase vs IC50 of 4b on α-amylase) is recorded as “approximately 1.20 times”. Moreover, the “less potential on α-amylase than 4b on α-glucosidase (IC50 ratio)” value in assay [1] (IC50 on α-amylase vs IC50 of 4b on α-glucosidase) is “approximately 2.0 times”. Moreover, in assay [1] (setting [5]), the concentration for half-maximal inhibition (IC50) amounted to 2.72 ± 0.09 mM. In assay [2], the α-Glucosidase inhibition type entry is listed as “Mixed type” and the inhibition constant (Ki) amounted to 290 µM. Moreover, the α-Amylase inhibition type result in assay [3] is “Mixed type”. In assay [3] (setting [6]), this compound yielded a Ki of 230 µM. In assay [3] (setting [7]), this compound registered an inhibitory constant (Ki) of 2350 µM. Moreover, in assay [4], the IC50 worked out at 520 ± 20 µM, the “inhibition percentage lower than standard inhibitor acarbose on α-glucosidase” value was “approximately 2.21 times” and the inhibition at 20 µM came to 40.3 ± 0.8%.

For the compound `CC(=O)C1CCCN1S(=O)(=O)c1ccc(C)cc1` (stereo not shown) [4b, N-(tosyl)-2-acetylpyrrolidine], in the assay “DPPH assay”, the “Inhibitory activity at 0.5 mM (%)” value is reported as 34.28 ± 0.73^b % and the IC50 was 1820 ± 48 µM. For the same compound, in assay [1], the concentration for half-maximal inhibition (IC50) worked out at 2.72 ± 0.09 mM, the “inhibition percentage lower than standard inhibitor acarbose on α-amylase” value was approximately 2.13 times and the inhibition at 20 µM was 30.1 ± 0.78%. Moreover, the half-inhibitory concentration (IC50) in assay [1] (setting [5]) was 3.21 ± 0.65 mM. In addition, in assay [2], the α-Glucosidase inhibition type result is listed as “Mixed type” and the Ki is 230 µM. The α-Amylase inhibition type result in assay [3] is listed as “Mixed type”. In addition, the inhibitory constant (Ki) in assay [3] (setting [6]) came to 270 µM. The compound further returned an inhibition constant (Ki) in assay [3] (setting [7]) of 710 µM. In addition, in assay [4], the concentration for half-maximal inhibition (IC50) came to 1640 ± 80 µM, the “inhibition percentage lower than standard inhibitor acarbose on α-glucosidase” value is reported as “approximately 2.21 times” and the inhibition at 20 µM is 32.31 ± 0.29%.

`C[C@H]1O[C@H](O[C@H]2[C@H](O)[C@@H](O)[C@@H](O[C@H]3[C@H](O)[C@@H](O)C(O)O[C@@H]3CO)O[C@@H]2CO)[C@H](O)[C@@H](O)[C@@H]1N[C@H]1C=C(CO)[C@@H](O)[C@H](O)[C@H]1O` (stereo partly shown) [Acarbose, acarbose, reference compound]: the inhibition at 20 µM in assay [1] was 61.7 ± 1.14%. In addition, in assay [2], the α-Glucosidase inhibition type entry is listed as “Mixed type”. The α-Amylase inhibition type entry in assay [3] is recorded as “Mixed type”.
